Consider ten compounds from US8987213B2, “Peptides that selectively home to heart vasculature and related conjugates and methods” (Sanford-Burnham Medical Research Institute, priority 2004, dated 2015).

In one assay the test system is heart endothelia. Nature of the assay: Phage localization in tissues by anti-T7 immunostaining, co-injected with fluorescein-conjugated tomato lectin. Format: in vivo, mouse. As to conditions: peptide displayed on phage, injected intravenously with tomato lectin. How it is done: Further characterization was performed on the five most efficient homing peptides, as indicated by the fold-selectivity summarized in Table 1, and their putative receptors. These homing peptides were analyzed for the ability to selectively bind heart endothelia in vivo and for specific binding to their putative receptors, which also were analyzed for expression in heart endothelia. Each of the phage-displaying a particular homing peptide was individually injected intravenously into mice with fluorescein-conjugated tomato lectin, a blood vessel marker. […] None of the six phage were detected in tissues other than heart under the same conditions.
Immunohistochemistry was performed as follows. Rat monoclonal anti-mouse CD31 (1:100) was obtained from BD Pharmingen (San Jose, Calif.), and rabbit polyclonal anti-T7 phage (1:500), and chicken anti-mouse CRIP2 IgY (1:100) were obtained from GenWay (San Diego, Calif.). Secondary antibodies, AlexaFluor-488 goat anti-rat IgG (1:1000) and AlexaFluor-594 goat anti-rat or rabbit IgG (1:1000) were obtained from Molecular Probes (Eugene, Oreg.); the secondary antibody GAYFC-AlexaFluor 594 goat anti-IgY Fc (1:250) was obtained from GenWay. Frozen sections were preincubated with blocking buffer (5% normal goat serum and 0.5% BSA in 1×PBS) for one hour, washed three times with PBS, and incubated with the primary antibody of interest overnight at 4° C. After the overnight incubation, secondary antibodies were added and incubated for one hour at room temperature. Slides were washed three times with PBS and mounted in Vectashield Mounting Medium with DAPI (Vector Laboratories; Burlingame, Calif.). Blood vessels were additionally visualized by intravenous injection with Lycopersicon esculentum (tomato) lectin conjugated to fluorescein (100 μg in 200 μl of PBS) purchased from Vector Laboratories.

Another assay deals with T1, Sigirr/TIR8 (Mus musculus, UniProt Q9JLZ8).
T1 construct: Full-length cDNAs were constructed for four of the putative heart homing receptors; expressed in transfected cells; host or cells: 293T cells, pMH6-derived plasmid
T1 sequence (Q9JLZ8 1-409): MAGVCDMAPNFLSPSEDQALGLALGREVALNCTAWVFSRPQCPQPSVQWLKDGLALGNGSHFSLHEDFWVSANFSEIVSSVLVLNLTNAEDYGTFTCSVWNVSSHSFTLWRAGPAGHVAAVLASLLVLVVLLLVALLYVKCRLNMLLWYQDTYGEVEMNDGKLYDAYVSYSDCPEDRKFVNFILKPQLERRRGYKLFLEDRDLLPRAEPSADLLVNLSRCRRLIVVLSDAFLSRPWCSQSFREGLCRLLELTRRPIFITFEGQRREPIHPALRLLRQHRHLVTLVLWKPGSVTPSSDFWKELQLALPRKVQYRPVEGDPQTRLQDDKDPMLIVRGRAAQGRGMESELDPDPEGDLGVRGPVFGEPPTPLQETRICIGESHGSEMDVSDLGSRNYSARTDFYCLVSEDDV
Nature of the assay: Phage binding to receptor-transfected 293T cells and peptide competition. The arrangement: species or system murine. The note with it: free synthetic peptide 100 μg/ml. The method, then:
(§1) Receptor transfections and phage binding assays were performed as follows. 293T cells were transfected with pMH6-derived plasmids (Roche Diagnostics; Indianapolis, Ind.) encoding HLP/CRIP2, Sigirr/TIR8, MpcII-3-related protein and bc10 using the Fugene transfection reagent (Roche Diagnostics). Briefly, 10 μg of plasmid was mixed with 700 μl of serum-free DMEM and 30 μl of Fugene transfection reagent and incubated for 15 minutes at room temperature before the mixture was added to cells. After forty-eight hours, cells were detached from culture dishes using EDTA and washed once with PBS. Phage displaying CRPPR (SEQ ID NO: 1), CKRAVR (SEQ ID NO: 7), CRSTRANPC (SEQ ID NO: 11) or CPKTRRVPC (SEQ ID NO: 12) and nonrecombinant control phage (1×10^9 p.f.u) were incubated with transfected cells for two hours at 4° C. Unbound phage were removed by five washes with 1% BSA in PBS. Bound phage were rescued by addition of bacteria; binding efficiencies were determined by plaque assay as described above.
(§2) Peptides for competition assays were synthesized at The Burnham Institute peptide facility using Fmoc chemistry in a solid-phase synthesizer prior to purification by HPLC and confirmation of their identity by mass spectrometry. Fluorescein-conjugated peptides were synthesized as described in Wender et al., Proc. Natl. Acad. Sci. USA 97:13003-13008 (2000). Competition assays were performed by addition of 100 μg peptide to the cells and phage, followed by incubation at 4° C. for two hours. After five washes with […], bound phage were rescued and quantitated by plaque assay.

Another assay has as its target T2, endothelin A-receptor (Homo sapiens, UniProt P25101).
T2 construct: host or cells: patients
T2 sequence (P25101 21-427): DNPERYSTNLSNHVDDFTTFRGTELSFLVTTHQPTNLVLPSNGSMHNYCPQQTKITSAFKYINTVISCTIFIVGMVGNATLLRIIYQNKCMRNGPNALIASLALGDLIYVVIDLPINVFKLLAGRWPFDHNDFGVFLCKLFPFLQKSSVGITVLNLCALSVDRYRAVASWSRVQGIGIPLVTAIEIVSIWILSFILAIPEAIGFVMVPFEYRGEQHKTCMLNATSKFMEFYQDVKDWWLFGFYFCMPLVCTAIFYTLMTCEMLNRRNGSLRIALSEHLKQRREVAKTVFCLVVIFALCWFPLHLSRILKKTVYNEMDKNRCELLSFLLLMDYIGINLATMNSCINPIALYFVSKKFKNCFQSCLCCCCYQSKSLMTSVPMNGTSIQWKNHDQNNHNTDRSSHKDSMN
The note with it: cited from earlier work.

A further assay addresses T3, bc10 (Mus musculus, UniProt P62951).
T3 construct: Full-length cDNAs were constructed for four of the putative heart homing receptors; expressed in transfected cells; host or cells: 293T cells, pMH6-derived plasmid
T3 sequence (P62951 1-87): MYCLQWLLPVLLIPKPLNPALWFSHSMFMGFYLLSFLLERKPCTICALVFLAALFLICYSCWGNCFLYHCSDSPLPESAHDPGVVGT
Nature of the assay: Phage binding to receptor-transfected 293T cells and peptide competition. Details: species or system murine. As to conditions: free synthetic peptide 100 μg/ml. How it is done:
as §1, §2

The next assay has as its target T4, MpcII-3-related protein (Mus musculus, UniProt Q9CZB0).
T4 construct: Full-length cDNAs were constructed for four of the putative heart homing receptors; expressed in transfected cells; host or cells: 293T cells, pMH6-derived plasmid
T4 sequence (Q9CZB0 30-169): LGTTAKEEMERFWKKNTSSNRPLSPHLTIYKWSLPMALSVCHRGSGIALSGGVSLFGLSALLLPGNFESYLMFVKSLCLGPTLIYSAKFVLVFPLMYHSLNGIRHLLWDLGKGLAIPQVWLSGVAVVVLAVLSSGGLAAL
The description is as above. The arrangement: species or system murine. As to conditions: free synthetic peptide 100 μg/ml. How it is done:
as §1, §2

The next assay concerns heart vasculature. Nature of the assay: In vivo heart homing of individual phage-displayed peptides after intravenous injection. The arrangement: species or system mouse. As to conditions: for selective homing to the heart (in words): peptide displayed on T7 phage, intravenous injection into mice. The method, then: The indicated peptides identified from a combined screen for heart endothelial homing were reconstituted in T7 phage and individually administered by intravenous injection into mice. […] The highest specificity (over 300-fold) was recorded for the CRPPR (SEQ ID NO: 1)-displaying phage. (A) CRPPR (SEQ ID NO: 1) phage homing to heart, kidney, brain, muscle and lung. (B) CARPAR (SEQ ID NO: 5) phage homing to heart, kidney, brain, muscle and lung. (C) CKRAVR (SEQ ID NO: 7) phage homing to heart, kidney, brain, muscle and lung. (D) CLIDLHVMC (SEQ ID NO: 10) phage homing to heart, kidney, brain, muscle and lung. (E) CRSTRANPC (SEQ ID NO: 11) phage homing to heart, kidney, brain, muscle and lung. (F) CPKTRRVPC (SEQ ID NO: 12) phage homing to heart, kidney, brain, muscle and lung.
In vivo panning was performed as follows. The ex vivo-selected phage pool (5×10^9 p.f.u.) was intravenously injected into mice through the tail vein and allowed to circulate for ten minutes before mice were carefully perfused through the left ventricle with DMEM in order to remove unbound intravascular phage. The heart and control tissues (brain, kidney, skin and muscle) were excised, and phage recovered as described in Hoffman et al., supra, 2004. Phage recovered from the heart were reinjected into mice, and the cycle was repeated for a total of three rounds. Non-recombinant phage were injected into a separate mouse as a control in each experiment.
Individual phage clones were reconstructed as follows. Oligonucleotides that encoded peptides from selected bait plasmids were synthesized, phosphorylated with T4 polynucleotide kinase (PNK; NEB) at 37° C. for one hour, and annealed at a concentration of 0.08 pmol/μl. The annealed inserts were diluted to 0.04 pmol/μl and ligated into T7Select 415-1 arms (Novagen) with T4 ligase overnight at 16° C. The next day, intact recombinant phage were prepared by mixing the ligation reaction with packaging extracts as described by the manufacturer. Inserts were confirmed by sequencing, and individual clones were amplified for ex vivo and in vivo testing as described in Example I above.

The subject of assay [1] is heart-derived cell suspensions. The experiment in a line: Competition of CRPPR-displaying phage binding to heart-derived cell suspensions. Format: cell-based, murine. The note with it: various concentrations of antibody or free peptide. The method, then:
CRPPR (SEQ ID NO: 1)-displaying phage were incubated with cell suspensions prepared from the heart; phage binding was measured in the presence and absence of various concentrations of the indicated antibodies or peptides. (A) A chicken anti-CRIP2 antibody blocked SEQ ID NO: 1-displaying phage binding to heart cells; normal IgY was used as the negative control. […] (C) In vivo homing of the CRPPR (SEQ ID NO: 1)-displaying phage to the heart was inhibited by co-injected anti-CRIP2 antibody. Shown are the mean and standard deviation from three separate experiments.
The specificity of CRPPR (SEQ ID NO: 1)-phage binding to heart vasculature was assayed using competition assays. […] As negative controls, two other heart-homing peptides had no effect on the CRPPR (SEQ ID NO: 1)-phage binding. Furthermore, co-injected anti-HLP/CRIP2 antibody inhibited in vivo homing of CRPPR (SEQ ID NO: 1)-phage (FIG. 7C).

A further assay addresses T5, HLP/CRIP2 (Mus musculus, UniProt Q9DCT8).
T5 construct: Full-length cDNAs were constructed for four of the putative heart homing receptors; expressed in transfected cells; host or cells: 293T cells, pMH6-derived plasmid
T5 sequence (Q9DCT8 1-208): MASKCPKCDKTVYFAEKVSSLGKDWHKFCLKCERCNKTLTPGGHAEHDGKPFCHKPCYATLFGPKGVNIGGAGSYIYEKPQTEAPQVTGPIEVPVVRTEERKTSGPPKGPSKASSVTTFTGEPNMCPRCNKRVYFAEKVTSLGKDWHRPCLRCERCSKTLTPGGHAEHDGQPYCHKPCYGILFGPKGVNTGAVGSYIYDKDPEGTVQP
Nature of the assay: Phage binding to receptor-transfected 293T cells and peptide competition. Details: species or system murine. The note with it: free synthetic peptide 100 μg/ml. How it is done: as §1, §2

Entries after “also recorded” stand apart in the source; their conditions may differ. Where no end group is shown, it is not given here.

For CKRAVR [on phage and as free peptide], in the assay on heart endothelia, the “phage detection in tissues other than heart (anti-T7 antibody)” value (shortened to “phage detection”) was “absent from other tissues” and the “phage localization in heart endothelia (anti-T7 antibody)” value (shortened to “phage localization in heart endothelia”) was “present in heart endothelia”. Further, the “inhibition of CKRAVR-phage binding to Sigirr/TIR8-transfected cells by free peptide” value with Sigirr/TIR8 is listed as “inhibited”.

With `Cc1cc2c(cc1CC(=O)c1sccc1S(=O)(=O)Nc1onc(C)c1Cl)OCO2` [TBC 11251], on endothelin A-receptor, the “clinical effect in patients with moderate to severe congestive heart failure” value is on record as “significant improvement”.

With “CPKTRRVPC [on phage and as free peptide]”, in the assay on heart endothelia, the “phage detection” value was “absent from other tissues” and the “phage localization in heart endothelia” value is reported as “present in heart endothelia”. Also, the “inhibition of CPKTRRVPC-phage binding to bc10-transfected cells by free peptide” value in the assay with bc10 is “inhibited”.

On to “CRSTRANPC [on phage and as free peptide]”, for which, in the assay on heart endothelia, the “phage detection” value is given as “absent from other tissues” and the “phage localization in heart endothelia” value is given as “present in heart endothelia”. The “inhibition of CRSTRANPC-phage binding to MpcII-3-related protein-transfected cells by free peptide” value with MpcII-3-related protein is recorded as “inhibited”.

Turning to CPSELLLP (displayed on phage), the “selective homing to the heart (in words)” value in the assay on heart vasculature is given as “did not”.

As to CGNQVDSRC (displayed on T7 phage), the “selective homing to the heart (in words)” value in the assay on heart vasculature was “no significant selective homing”.

For CARPAR (displayed on phage), the “selective homing to the heart (in words)” value in the assay on heart vasculature is given as “exhibited selective homing to the heart”. Besides, in the assay with heart endothelia, the “phage detection” value is recorded as “absent from other tissues” and the “phage localization in heart endothelia” value was “present in heart endothelia”.

In the case of “CLIDLHVMC (displayed on phage) [peptide identified with receptor clone 27; negative control phage]”, the “selective homing to the heart (in words)” value in the assay with heart vasculature was “no specific homing to the heart”. The “phage localization in heart endothelia” value is “absent from the heart” in the assay with heart endothelia; “absent from the heart and other tissues” in the assay with heart endothelia (listed as SEQ ID NO: 10).

As to CPKRPR (displayed on phage), the “selective homing to the heart (in words)” value with heart vasculature is recorded as “exhibited selective homing to the heart”.

For the compound “CRPPR (not fully specified) [tested on T7 phage, as free peptide and fluorescein-conjugated]”, the “phage homing to the lungs” value in the assay with heart vasculature (peptide displayed on phage, lung tissue) is recorded as “little”. Besides, the “inhibition of CRPPR-displaying phage binding to heart-derived cell suspensions” value in assay [1] is “blocked; also recorded: Dose dependent inhibition”. In the assay with heart endothelia, the “phage detection” value is given as “absent from other tissues” and the “phage localization in heart endothelia” value is reported as “present in heart endothelia”. Moreover, in the assay with HLP/CRIP2, the “inhibition of CRPPR-phage binding to HLP/CRIP2-transfected cells by free peptide” value is reported as “inhibited”.
